Reference: publication PMC8535176, “Efficacy of epetraborole against Mycobacterium abscessus is increased with norvaline” (PLoS Pathogens, 2021)
≈ marks a conversion by molar mass, not a printed value. Like-named read-outs stand apart in the source and are kept apart here.

Key:
Assay in all cases: microbe, parasite or virus in culture
B. cereus = test system: B. cereus; parameters: Whole-cell growth inhibition, dose-response MIC (MIC90) by resazurin microtiter assay (REMA), fluorescence read-out; conditions: Bacillus cereus
C. glutamicum = test system: C. glutamicum; parameters: Whole-cell growth inhibition, dose-response MIC (MIC90) by resazurin microtiter assay (REMA), fluorescence read-out; conditions: Corynebacterium glutamicum
E. coli = test system: E. coli; parameters: Whole-cell growth inhibition, dose-response MIC (MIC90) by resazurin microtiter assay (REMA), fluorescence read-out; conditions: Escherichia coli
M. abscessus = test system: M. abscessus; parameters: Whole-cell growth inhibition, dose-response MIC (MIC90) by resazurin microtiter assay (REMA), fluorescence read-out; conditions: Mycobacteroides abscessus
M. avium hominissuis = test system: M. avium hominissuis; parameters: Whole-cell growth inhibition, dose-response MIC (MIC90) by resazurin microtiter assay (REMA), fluorescence read-out; conditions: Mycobacterium avium
M. avium intracellulaire = test system: M. avium intracellulaire; parameters: Whole-cell growth inhibition, dose-response MIC (MIC90) by resazurin microtiter assay (REMA), fluorescence read-out; conditions: Mycobacterium avium
M. tuberculosis Erdman = test system: T1, M. tuberculosis Erdman; parameters: Whole-cell growth inhibition, dose-response MIC (MIC90) by resazurin microtiter assay (REMA), fluorescence read-out; conditions: Mycobacterium tuberculosis, ERDMAN
T1 construct: Erdman

M. tuberculosis H37Rv = test system: T2, M. tuberculosis H37Rv; parameters: Whole-cell growth inhibition, dose-response MIC (MIC90) by resazurin microtiter assay (REMA), fluorescence read-out; conditions: Mycobacterium tuberculosis, H37RV
T2 construct: H37Rv

P. aeruginosa = test system: P. aeruginosa; parameters: Whole-cell growth inhibition, dose-response MIC (MIC90) by resazurin microtiter assay (REMA), fluorescence read-out; conditions: Pseudomonas aeruginosa
[1] = test system: T3, Mycobacteroides abscessus subsp. abscessus ATCC 19977; parameters: species or system M. abscessus; Resazurin microtiter assay (REMA), fluorescence; MIC at 90% growth inhibition from Gompertz fit; conditions: ATCC19977, 48 h, rough morphotype
T3 construct: ATCC 19977
Procedure: (§1) MIC values were determined using the resazurin microtiter assay (REMA). Cultures were grown to log phase (OD600 of 0.4–0.8) and diluted to OD600 of 0.005. Drugs were prepared in two-fold serial dilutions in 96-well plates with 90 μL of bacteria per well to a final volume of 100 μL. Plates were incubated at 37°C until drug-free wells were turbid (2 days for M. abscessus). Ten μL of resazurin (0.025% wt/vol) was added to each well. Once the drug-free wells turned pink (one doubling time), the fluorescence (ex/em 560nm/590nm) was measured using an Infinite F200 Tecan plate reader. Fluorescence intensities were converted to % viable cells relative to drug-free conditions and fit to the Gompertz equation using GraphPad Prism version 9. MIC values at 90% growth inhibition were determined from the nonlinear regression Gompertz equation. Next, we tested the in vitro activity of EPT against a panel of M. abscessus clinical isolates belonging to the three subspecies of the M. abscessus complex (M. abscessus, M. massiliense, and M. bolletii) with smooth and rough colony morphologies and with different drug susceptibility profiles to various antibiotics. There was no loss in activity against clinical isolates (range of 0.014–0.046 μg/mL) nor different morphologies (S2 Table). To determine the spectrum of activity of EPT, we curated a panel of various mycobacteria and representative gram-positive and gram-negative bacteria. […] Mycobacteria strains were grown in rolling [compound left out] culture at 37°C in Middlebrook 7H9 (Difco) supplemented with 10% albumin dextrose catalase (ADC), 0.2% glycerol, and 0.05% Tween 80 (7H9 complete) or on 7H10 agar plates supplemented with 10% oleic acid ADC and 0.5% glycerol at 37°C. When mentioned, the carbon source was modified from glycerol to acetate or the detergent Tween 80 was removed from the media. Bacillus cereus (clinical isolate), Corynebacterium glutamicum (ATCC 13032), Escherichia coli, and Pseudomonas aeruginosa PAO1 were grown in LB broth. HepG2 cells (ATCC HB-8065) were grown in Dulbecco’s modified Eagle’s medium (DMEM) with phenol red (from Gibco) supplemented with 10% fetal bovine serum at 37°C with 5% CO2.

[2] = test system: T4, Mycobacteroides abscessus subsp. abscessus MT16_1065; parameters: species or system M. abscessus; Resazurin microtiter assay (REMA), fluorescence; MIC at 90% growth inhibition from Gompertz fit; conditions: 48 h, smooth morphotype
T4 construct: MT16_1065
Procedure: as §1

[3] = test system: T5, Mycobacteroides abscessus subsp. abscessus MT16_6490; parameters: species or system M. abscessus; Resazurin microtiter assay (REMA), fluorescence; MIC at 90% growth inhibition from Gompertz fit; conditions: 48 h, smooth morphotype
T5 construct: MT16_6490
Procedure: as §1

[4] = test system: T6, Mycobacteroides abscessus subsp. bolletii AV; parameters: species or system M. abscessus; Resazurin microtiter assay (REMA), fluorescence; MIC at 90% growth inhibition from Gompertz fit; conditions: 48 h, smooth morphotype
T6 construct: AV
Procedure: as §1

[5] = test system: T7, Mycobacteroides abscessus subsp. massiliense MT15_1748; parameters: species or system M. abscessus; Resazurin microtiter assay (REMA), fluorescence; MIC at 90% growth inhibition from Gompertz fit; conditions: 48 h, rough morphotype
T7 construct: MT15_1748
Procedure: as §1

[6] = test system: T8, Mycobacteroides abscessus subsp. massiliense MT15_1749; parameters: species or system M. abscessus; Resazurin microtiter assay (REMA), fluorescence; MIC at 90% growth inhibition from Gompertz fit; conditions: 48 h, rough morphotype
T8 construct: MT15_1749
Procedure: as §1

[7] = test system: T9, Mycobacteroides abscessus subsp. bolletii Paris 167; parameters: species or system M. abscessus; Resazurin microtiter assay (REMA), fluorescence; MIC at 90% growth inhibition from Gompertz fit; conditions: 48 h, rough morphotype, read-out: MIC BDQ
T9 construct: Paris 167
Procedure: as §1

NCC[C@H](O)C(=O)N[C@@H]1C[C@H](N)[C@@H](O[C@H]2O[C@H](CN)[C@@H](O)[C@H](O)[C@H]2O)[C@H](O)[C@H]1O[C@H]1O[C@H](CO)[C@@H](O)[C@H](N)[C@H]1O [Amikacin] was tested, and the MIC (B. cereus; read-out: MIC (µg/mL) / AMK) was 64 µg/mL (≈ 109 µM), the MIC (C. glutamicum; read-out: MIC (µg/mL) / AMK) was 0.064 µg/mL (≈ 0.109 µM) and the MIC (E. coli; read-out: MIC (µg/mL) / AMK) was 0.15 µg/mL (≈ 0.256 µM). The MIC (M. abscessus; read-out: MIC (µg/mL) / AMK) was 4.8 µg/mL (≈ 8.2 µM), the MIC (M. avium hominissuis; read-out: MIC (µg/mL) / AMK) was 5.6 µg/mL (≈ 9.56 µM) and the MIC (M. avium intracellulaire; read-out: MIC (µg/mL) / AMK) was 3.8 µg/mL (≈ 6.49 µM). The MIC (M. tuberculosis Erdman; read-out: MIC (µg/mL) / AMK) was 0.48 µg/mL (≈ 0.82 µM), the MIC (M. tuberculosis H37Rv; read-out: MIC (µg/mL) / AMK) was 0.3 µg/mL (≈ 0.512 µM) and the MIC (P. aeruginosa; read-out: MIC (µg/mL) / AMK) was 0.22 µg/mL (≈ 0.376 µM). For the same molecule, the MIC ([1]; read-out: MIC AMK) was 2.4 µg/mL (≈ 4.1 µM), the MIC ([2]; read-out: MIC AMK) was 2.1 µg/mL (≈ 3.59 µM) and the MIC ([3]; read-out: MIC AMK) was 5.7 µg/mL (≈ 9.73 µM). The MIC ([4]; read-out: MIC AMK) was 7 µg/mL (≈ 12 µM), the MIC ([5]; read-out: MIC AMK) was 14 µg/mL (≈ 23.9 µM) and the MIC ([6]; read-out: MIC AMK) was 8.8 µg/mL (≈ 15 µM).
For COc1nc2ccc(Br)cc2cc1[C@@H](c1ccccc1)[C@@](O)(CCN(C)C)c1cccc2ccccc12 [Bedaquiline], the MIC (B. cereus; read-out: MIC (µg/mL) / BDQ) was > 7.8 µg/mL, the MIC (C. glutamicum; read-out: MIC (µg/mL) / BDQ) was > 7.8 µg/mL and the MIC (E. coli; table prints MIC, main text calls the EPT values MIC90, read-out: MIC (µg/mL) / BDQ) was > 7.8 µg/mL. The MIC (M. abscessus; read-out: MIC (µg/mL) / BDQ) was 0.67 µg/mL (≈ 1.21 µM), the MIC (M. avium hominissuis; read-out: MIC (µg/mL) / BDQ) was 0.038 µg/mL (≈ 0.0684 µM) and the MIC (M. avium intracellulaire; read-out: MIC (µg/mL) / BDQ) was 0.014 µg/mL (≈ 0.0252 µM). The MIC (M. tuberculosis Erdman; read-out: MIC (µg/mL) / BDQ) was 0.061 µg/mL (≈ 0.11 µM), the MIC (M. tuberculosis H37Rv; read-out: MIC (µg/mL) / BDQ) was 0.26 µg/mL (≈ 0.468 µM) and the MIC (P. aeruginosa; read-out: MIC (µg/mL) / BDQ) was > 7.8 µg/mL. It also gave an MIC ([1]; read-out: MIC BDQ) of 0.27 µg/mL (≈ 0.486 µM), an MIC ([2]; read-out: MIC BDQ) of 0.36 µg/mL (≈ 0.648 µM) and an MIC ([3]; read-out: MIC BDQ) of 0.83 µg/mL (≈ 1.49 µM). The MIC ([4]; read-out: MIC BDQ) was 1.3 µg/mL (≈ 2.34 µM), the MIC [7] was 0.39 µg/mL (≈ 0.702 µM) and the MIC ([5]; read-out: MIC BDQ) was 0.23 µg/mL (≈ 0.414 µM). For the same molecule, the MIC ([6]; read-out: MIC BDQ) was 0.4 µg/mL (≈ 0.72 µM).
